Data published in PubChem BioAssay AID1918935 (Molecular Pharmacology Branch, DTP, NCI, 2023).

System: 324938-238-R-J1-PDC complex spheroid viability
Assay: Anticancer human tumor 324938-238-R-J1-PDC patient-derived bladder carcinoma cell line growth inhibition
Conditions: for IC50: curve of first compound; for viability, T/C: stronger effect = lower value
Outline: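 Multicellular complex spheroids of tumor cells with human endothelial cells (HUVEC) and mesenchymal stem cells; the LSD1 inhibitor iadademstat was combined with standard-of-care or investigational agents. Top concentration at or near clinical Cmax, half-log dilutions; final DMSO ≤0.25%.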

[1] = second compound 0.1 µM, first compound 0.00316 µM
[2] = second compound 0.1 µM, first compound 0.01 µM
[3] = second compound 0.1 µM, first compound 0.0316 µM
[4] = second compound 0.1 µM, first compound 0.1 µM
[5] = second compound 0.316 µM, first compound 0.00316 µM
[6] = second compound 0.316 µM, first compound 0.01 µM
[7] = second compound 0.316 µM, first compound 0.0316 µM
[8] = second compound 0.316 µM, first compound 0.1 µM
[9] = second compound 1 µM, first compound 0.00316 µM
[10] = second compound 1 µM, first compound 0.01 µM
[11] = second compound 1 µM, first compound 0.0316 µM
[12] = second compound 1 µM, first compound 0.1 µM
[13] = second compound 3.16 µM, first compound 0.00316 µM
[14] = second compound 3.16 µM, first compound 0.01 µM
[15] = second compound 3.16 µM, first compound 0.0316 µM
[16] = second compound 3.16 µM, first compound 0.1 µM
[17] = second compound 10 µM, first compound 0.00316 µM
[18] = second compound 10 µM, first compound 0.01 µM
[19] = second compound 10 µM, first compound 0.0316 µM
[20] = second compound 10 µM, first compound 0.1 µM
[21] = second compound 0.1 µM, first compound 0.00949 µM
[22] = second compound 0.1 µM, first compound 0.03 µM
[23] = second compound 0.1 µM, first compound 0.0949 µM
[24] = second compound 0.1 µM, first compound 0.3 µM
[25] = second compound 0.316 µM, first compound 0.00949 µM
[26] = second compound 0.316 µM, first compound 0.03 µM
[27] = second compound 0.316 µM, first compound 0.0949 µM
[28] = second compound 0.316 µM, first compound 0.3 µM
[29] = second compound 1 µM, first compound 0.00949 µM
[30] = second compound 1 µM, first compound 0.03 µM
[31] = second compound 1 µM, first compound 0.0949 µM
[32] = second compound 1 µM, first compound 0.3 µM
[33] = second compound 3.16 µM, first compound 0.00949 µM
[34] = second compound 3.16 µM, first compound 0.03 µM
[35] = second compound 3.16 µM, first compound 0.0949 µM
[36] = second compound 3.16 µM, first compound 0.3 µM
[37] = second compound 10 µM, first compound 0.00949 µM
[38] = second compound 10 µM, first compound 0.03 µM
[39] = second compound 10 µM, first compound 0.0949 µM
[40] = second compound 10 µM, first compound 0.3 µM
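Note: spheroids also contain HUVEC and human MSCs and agents combined with iadademstat; spheroids exposed to agents for 7 days before readout.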

What does the source list for `CC[C@@]1(O)C(=O)OCc2c1cc1n(c2=O)Cc2cc3c(CN(C)C)c(O)ccc3nc2-1` + NC1CCC(NC2CC2c2ccccc2)CC1?
IC50 (second compound 0.1 µM): 1.54 nM; IC50 (second compound 0.316 µM): 1.49 nM; IC50 (second compound 1 µM): 1.58 nM; IC50 (second compound 3.16 µM): 1.42 nM; IC50 (second compound 10 µM): 1.16 nM; viability, T/C (second compound 0.1 µM, first compound 0.000316 µM): 84.7%; viability, T/C (second compound 0.1 µM, first compound 0.001 µM): 64.7%; viability, T/C [1]: 25.5%; viability, T/C [2]: 9.38%; viability, T/C [3]: 7.9%; viability, T/C [4]: 8.7%; viability, T/C (second compound 0.316 µM, first compound 0.000316 µM): 82.5%; viability, T/C (second compound 0.316 µM, first compound 0.001 µM): 63.2%; viability, T/C [5]: 25.3%; viability, T/C [6]: 9.31%; viability, T/C [7]: 9.04%; viability, T/C [8]: 8.45%; viability, T/C (second compound 1 µM, first compound 0.000316 µM): 83.2%; viability, T/C (second compound 1 µM, first compound 0.001 µM): 66.3%; viability, T/C [9]: 25.4%; viability, T/C [10]: 8.84%; viability, T/C [11]: 9.27%; viability, T/C [12]: 8.86%; viability, T/C (second compound 3.16 µM, first compound 0.000316 µM): 74.5%; viability, T/C (second compound 3.16 µM, first compound 0.001 µM): 61.1%; viability, T/C [13]: 24.9%; viability, T/C [14]: 10.1%; viability, T/C [15]: 8.96%; viability, T/C [16]: 9.71%; viability, T/C (second compound 10 µM, first compound 0.000316 µM): 74.2%; viability, T/C (second compound 10 µM, first compound 0.001 µM): 53.7%; viability, T/C [17]: 23.9%; viability, T/C [18]: 9.28%; viability, T/C [19]: 9.85%; viability, T/C [20]: 9.19%

`COc1cc(C2c3cc4c(cc3C(OC3OC5COC(C)OC5C(O)C3O)C3COC(=O)C23)OCO4)cc(OC)c1O` (stereo not given) + NC1CCC(NC2CC2c2ccccc2)CC1 was tested. Which IC50 (second compound 0.1 µM) did it give?
The IC50 was 56.7 nM.

What about the IC50 (second compound 0.316 µM) of the same molecule?
The IC50 was 54.8 nM.

What about the IC50 (second compound 1 µM) of the same molecule?
Its IC50 is 51.3 nM.

What about the IC50 (second compound 3.16 µM) of the same molecule?
The IC50 was 54.7 nM.

And the IC50 (second compound 10 µM)?
Its IC50 is 83.3 nM.

What about the viability, T/C [21] of the same molecule?
Its viability, T/C is 83.9%.

What about the viability, T/C [22] of the same molecule?
The viability, T/C was 67%.

What about the viability, T/C [23] of the same molecule?
The viability, T/C was 35.3%.

What about the viability, T/C [24] of the same molecule?
The viability, T/C was 22.2%.

And the viability, T/C (second compound 0.1 µM, first compound 0.949 µM)?
The viability, T/C was 21.9%.

And the viability, T/C (second compound 0.1 µM, first compound 3 µM)?
The viability, T/C was 9.11%.

And the viability, T/C [25]?
Its viability, T/C is 84.9%.

What about the viability, T/C [26] of the same molecule?
The viability, T/C was 64.9%.

What about the viability, T/C [27] of the same molecule?
Its viability, T/C is 35.3%.

And the viability, T/C [28]?
The viability, T/C was 23.4%.

And the viability, T/C (second compound 0.316 µM, first compound 0.949 µM)?
Its viability, T/C is 19%.

And the viability, T/C (second compound 0.316 µM, first compound 3 µM)?
Its viability, T/C is 10%.

What about the viability, T/C [29] of the same molecule?
The viability, T/C was 76.4%.

What about the viability, T/C [30] of the same molecule?
Its viability, T/C is 61.6%.

And the viability, T/C [31]?
Its viability, T/C is 36.8%.

What about the viability, T/C [32] of the same molecule?
The viability, T/C was 22.6%.

And the viability, T/C (second compound 1 µM, first compound 0.949 µM)?
Its viability, T/C is 22.1%.

What about the viability, T/C (second compound 1 µM, first compound 3 µM) of the same molecule?
Its viability, T/C is 10.1%.

And the viability, T/C [33]?
The viability, T/C was 71.8%.

What about the viability, T/C [34] of the same molecule?
Its viability, T/C is 64%.

What about the viability, T/C [35] of the same molecule?
The viability, T/C was 36.1%.

And the viability, T/C [36]?
Its viability, T/C is 27.1%.

What about the viability, T/C (second compound 3.16 µM, first compound 0.949 µM) of the same molecule?
The viability, T/C was 21.3%.

And the viability, T/C (second compound 3.16 µM, first compound 3 µM)?
Its viability, T/C is 12.1%.

And the viability, T/C [37]?
The viability, T/C was 67.4%.

And the viability, T/C [38]?
The viability, T/C was 67.9%.

And the viability, T/C [39]?
The viability, T/C was 47.1%.

What about the viability, T/C [40] of the same molecule?
Its viability, T/C is 23.8%.

And the viability, T/C (second compound 10 µM, first compound 0.949 µM)?
The viability, T/C was 18.6%.

And the viability, T/C (second compound 10 µM, first compound 3 µM)?
Its viability, T/C is 13.2%.

What does the source list for `Nc1ccn(C2OC(CO)C(O)C2(F)F)c(=O)n1` (stereo not given) + NC1CCC(NC2CC2c2ccccc2)CC1?
IC50 (second compound 0.1 µM): < 0.949 nM; IC50 (second compound 0.316 µM): < 0.949 nM; IC50 (second compound 1 µM): < 0.949 nM; IC50 (second compound 3.16 µM): < 0.949 nM; IC50 (second compound 10 µM): < 0.949 nM; viability, T/C (second compound 0.1 µM, first compound 0.000949 µM): 7.42%; viability, T/C (second compound 0.1 µM, first compound 0.003 µM): 7.71%; viability, T/C [21]: 7.38%; viability, T/C [22]: 6.53%; viability, T/C [23]: 5.05%; viability, T/C [24]: 5.23%; viability, T/C (second compound 0.316 µM, first compound 0.000949 µM): 10.3%; viability, T/C (second compound 0.316 µM, first compound 0.003 µM): 7.95%; viability, T/C [25]: 6.91%; viability, T/C [26]: 7.37%; viability, T/C [27]: 5.53%; viability, T/C [28]: 5.05%; viability, T/C (second compound 1 µM, first compound 0.000949 µM): 9.63%; viability, T/C (second compound 1 µM, first compound 0.003 µM): 9.08%; viability, T/C [29]: 8.5%; viability, T/C [30]: 7.08%; viability, T/C [31]: 5.53%; viability, T/C [32]: 5.33%; viability, T/C (second compound 3.16 µM, first compound 0.000949 µM): 10.8%; viability, T/C (second compound 3.16 µM, first compound 0.003 µM): 8.82%; viability, T/C [33]: 9.28%; viability, T/C [34]: 7.53%; viability, T/C [35]: 5.27%; viability, T/C [36]: 5.32%; viability, T/C (second compound 10 µM, first compound 0.000949 µM): 11.8%; viability, T/C (second compound 10 µM, first compound 0.003 µM): 9.1%; viability, T/C [37]: 9.36%; viability, T/C [38]: 8.14%; viability, T/C [39]: 4.93%; viability, T/C [40]: 5.8%

What does the source list for `Nc1ncn(C2CC(O)C(CO)O2)c(=O)n1` (stereo not given) + NC1CCC(NC2CC2c2ccccc2)CC1?
IC50 (second compound 0.1 µM): 177 nM; IC50 (second compound 0.316 µM): 256 nM; IC50 (second compound 1 µM): 159 nM; IC50 (second compound 3.16 µM): 129 nM; IC50 (second compound 10 µM): 237 nM; viability, T/C [1]: 71.8%; viability, T/C [2]: 66%; viability, T/C [3]: 59.3%; viability, T/C [4]: 56.1%; viability, T/C (second compound 0.1 µM, first compound 0.316 µM): 44%; viability, T/C (second compound 0.1 µM, first compound 1 µM): 40.3%; viability, T/C [5]: 74.9%; viability, T/C [6]: 67.1%; viability, T/C [7]: 68.4%; viability, T/C [8]: 55.1%; viability, T/C (second compound 0.316 µM, first compound 0.316 µM): 45.6%; viability, T/C (second compound 0.316 µM, first compound 1 µM): 42%; viability, T/C [9]: 73.2%; viability, T/C [10]: 58.7%; viability, T/C [11]: 60.4%; viability, T/C [12]: 50.7%; viability, T/C (second compound 1 µM, first compound 0.316 µM): 46.2%; viability, T/C (second compound 1 µM, first compound 1 µM): 47%; viability, T/C [13]: 61.9%; viability, T/C [14]: 58.6%; viability, T/C [15]: 54.3%; viability, T/C [16]: 53.4%; viability, T/C (second compound 3.16 µM, first compound 0.316 µM): 44.5%; viability, T/C (second compound 3.16 µM, first compound 1 µM): 39.5%; viability, T/C [17]: 63.5%; viability, T/C [18]: 67.3%; viability, T/C [19]: 57.9%; viability, T/C [20]: 59.1%; viability, T/C (second compound 10 µM, first compound 0.316 µM): 45.2%; viability, T/C (second compound 10 µM, first compound 1 µM): 37%
